Patent EP1171107B1, “USE OF A PHARMACEUTICAL COMPOSITION IN THE MANUFACTURE OF A MEDICAMENT FOR THE TREATMENT OF PATHOLOGICAL CONDITIONS OF THE EYE CAUSED BY BACTERIA, VIRUSES, FUNGI, YEASTS AND PROTOZOA” (Dr. GERHARD MANN chem.-pharm. Fabrik GmbH, priority 1999, dated 2000)

How the values were obtained:
Type in all cases: cell-based
S.epidermidis [1] = assay: Qualitative examination: enrichment of the inoculated test preparation in broth
From the text: (§1) Escherichia (E.coli) Staphylococcus (S.aureus) Streptococcus (Sc.) Pneumoniae Pseudomonas (P.aeruginosa) Staphylococcus (S. epidermidis) Haemophilus (H. influenzae)
(§2) Die verschiedenen Testkeime wurde jeweils aus einem Lyophilisat in NaCl-Peptonpuffer homogenisiert und auf Caseinpepton-Sojymehlpepton. (Caso-) Agar (Fa. bioMérieux; Art. Nr. 43019) bez. Kochblut-Agar (Fa. bioMérieux; Art. Nr. 43109) subkultiviert. Die Teststämme wurden vor Versuchsbeginn durch Erstellen eines biochemischen Profils mittels ATB/Vitek-System (Fa. bioMérieux, Nürtingen) auf Reinheit und Identität überprüft.
(§3) Die verschiedenen Testsubstanzen a. bis j. wurden jeweils zu 5 ml in sterile Zentrifugenröhrchen abgefüllt und mit ca. 10^5 KBE^*/ml (* = koloniebildende Einheiten) der oben genannten Testkeime kontaminiert. Pro Substanz wurde für jeden Testkeim und jede zu prüfende Testzeit ein separater Ansatz angeimpft, d.h.10 Testsubstanzen zu jeweils 7 Testzeiten und 6 Testkeime (= insgesamt 502 Testansätze). […] Der Überstand wurde dekantiert und das Pellet in 5 ml NaCl Peptonpuffer aufgenommen und resuspendiert. Die Suspension wurde erneut 10 Minuten bei 3000 rpm abzentrifugiert und 5 ml NaCl-Peptonpuffer aufgenommen und mittels Vortex homogenisiert.
(§4) Jeweils 2 ml der Testansätze wurden in 20 ml Caso-Bouillon oder für H. influenzae, in Fildes-Medium der Firma Becton Dickinson, ARt. Nr. 0349-739, angereichert und ebenfalls maximal 4 Tage bei 33± 2°C bebrütet. Ein negatives Ergebnis der Anreicherung belegt die Elimination der inokulierten Keime.

Sc. pneumoniae [2] = assay: as above
From the text: as §1, §2, §3, §4

E.coli [3] = assay: as above
From the text: as §1, §2, §3, §4

S.aureus [4] = assay: as above
From the text: as §1, §2, §3, §4

H.influenzae = assay: Quantitative germ count (re-isolation, surface method) after inoculating the test preparation; details: Ausgangskeimzahl 2,8 x 10^5 KBE/ml
From the text: as §1, §2
(§5) Die Ausgangskeimzahl wurde im Oberflächenverfahren mit Hilfe eines Spiralplaters (Fa. Meintrup, Lähden) ermittelt und ist im einzelnen den Tabellen 1-12 zu entnehmen.
as §3
(§6) Die anschließende Keimzahlbestimmung erfolgte im Oberflächenverfahren durch Ausspiralisieren eines […] Aliquots auf Caso-Agar bzw. für H. influenzae auf Kochblut-Agar. Die Platten wurden bei 33±2°C für max. 4 Tage bebrütet. Die Nachweisgrenze des Verfahrens liegt bei 100 KBE/ml.

Sc. pneumoniae [5] = assay: as above; details: Ausgangskeimzahl 3,7 x 10^5 KBE/ml
From the text: as §1, §2, §5, §3, §6

E.coli [6] = assay: as above; details: Ausgangskeimzahl 2,7 x 10^5 KBE/ml
From the text: as §1, §2, §5, §3, §6

S.aureus [7] = assay: as above; details: Ausgangskeimzahl 2,6 x 10^5 KBE/ml
From the text: as §1, §2, §5, §3, §6

S.epidermidis [8] = assay: as above; details: Ausgangskeimzahl 2,1 x 10^5 KBE/ml
From the text: as §1, §2, §5
(§7) Die verschiedenen Testsubstanzen a. bis j. wurden jeweils zu 5 ml in sterile Zentrifugenröhrchen abgefüllt und mit ca. 10^5 KBE^*/ml (* = koloniebildende Einheiten) der oben genannten Testkeime kontaminiert. Pro Substanz wurde für jeden Testkeim und jede zu prüfende Testzeit ein separater Ansatz angeimpft, d.h.10 Testsubstanzen zu jeweils 7 Testzeiten und 6 Testkeime (= insgesamt 502 Testansätze). Nach 2, 6, 8, 24, 32, 48 und 72 Stunden wurde dann der jeweilige Testansatz 10 Minuten bei 3000 rpm abzentrifugiert. Der Überstand wurde dekantiert und das Pellet in 5 ml NaCl Peptonpuffer aufgenommen und resuspendiert. Die Suspension wurde erneut 10 Minuten bei 3000 rpm abzentrifugiert und 5 ml NaCl-Peptonpuffer aufgenommen und mittels Vortex homogenisiert.
as §6

P.aeruginosa [9] = assay: as above; details: Ausgangskeimzahl 2,7 x 10^5 KBE/ml
From the text: as §1, §2, §5, §7, §6

P.aeruginosa [10] = assay: Qualitative examination: enrichment of the inoculated test preparation in broth
From the text: as §1, §2, §7, §4

Benzalkoniumchlorid [Benzalkoniumchlorid 0,0025 Gew.-%]
Ergebnis der Reisolierung qualitiativ (+/-) nach Anreicherung (S.epidermidis [1]; 2 h after inoculation): - - | Ergebnis der Reisolierung qualitiativ (+/-) nach Anreicherung (S.epidermidis [1]; 4 h after inoculation): - | Ergebnis der Reisolierung qualitiativ (+/-) nach Anreicherung (S.epidermidis [1]; 6 h after inoculation): - | Ergebnis der Reisolierung qualitiativ (+/-) nach Anreicherung (S.epidermidis [1]; 8 h after inoculation): - | Ergebnis der Reisolierung qualitiativ (+/-) nach Anreicherung (S.epidermidis [1]; 24 h after inoculation): - | Ergebnis der Reisolierung qualitiativ (+/-) nach Anreicherung (S.epidermidis [1]; 32 h after inoculation): - | Ergebnis der Reisolierung qualitiativ (+/-) nach Anreicherung (S.epidermidis [1]; 48 h after inoculation): - | Ergebnis der Reisolierung qualitiativ (+/-) nach Anreicherung (S.epidermidis [1]; 72 h after inoculation): - | Ergebnis der Reisolierung qualitiativ (+/-) nach Anreicherung (Sc. pneumoniae [2]; 2 h after inoculation): - | Ergebnis der Reisolierung qualitiativ (+/-) nach Anreicherung (Sc. pneumoniae [2]; 4 h after inoculation): - | Ergebnis der Reisolierung qualitiativ (+/-) nach Anreicherung (Sc. pneumoniae [2]; 6 h after inoculation): - | Ergebnis der Reisolierung qualitiativ (+/-) nach Anreicherung (Sc. pneumoniae [2]; 8 h after inoculation): - | Ergebnis der Reisolierung qualitiativ (+/-) nach Anreicherung (Sc. pneumoniae [2]; 24 h after inoculation): - | Ergebnis der Reisolierung qualitiativ (+/-) nach Anreicherung (Sc. pneumoniae [2]; 32 h after inoculation): - | Ergebnis der Reisolierung qualitiativ (+/-) nach Anreicherung (Sc. pneumoniae [2]; 48 h after inoculation): - | Ergebnis der Reisolierung qualitiativ (+/-) nach Anreicherung (Sc. pneumoniae [2]; 72 h after inoculation): - | Ergebnis der Reisolierung qualitiativ (+/-) nach Anreicherung (E.coli [3]; 2 h after inoculation): - | Ergebnis der Reisolierung qualitiativ (+/-) nach Anreicherung (E.coli [3]; 4 h after inoculation): - | Ergebnis der Reisolierung qualitiativ (+/-) nach Anreicherung (E.coli [3]; 6 h after inoculation): - | Ergebnis der Reisolierung qualitiativ (+/-) nach Anreicherung (E.coli [3]; 8 h after inoculation): - | Ergebnis der Reisolierung qualitiativ (+/-) nach Anreicherung (E.coli [3]; 24 h after inoculation): - | Ergebnis der Reisolierung qualitiativ (+/-) nach Anreicherung (E.coli [3]; 32 h after inoculation): - | Ergebnis der Reisolierung qualitiativ (+/-) nach Anreicherung (E.coli [3]; 48 h after inoculation): - | Ergebnis der Reisolierung qualitiativ (+/-) nach Anreicherung (E.coli [3]; 72 h after inoculation): - | Ergebnis der Reisolierung qualitiativ (+/-) nach Anreicherung (S.aureus [4]; 2 h after inoculation): - | Ergebnis der Reisolierung qualitiativ (+/-) nach Anreicherung (S.aureus [4]; 4 h after inoculation): - | Ergebnis der Reisolierung qualitiativ (+/-) nach Anreicherung (S.aureus [4]; 6 h after inoculation): - | Ergebnis der Reisolierung qualitiativ (+/-) nach Anreicherung (S.aureus [4]; 8 h after inoculation): - | Ergebnis der Reisolierung qualitiativ (+/-) nach Anreicherung (S.aureus [4]; 24 h after inoculation): - | Ergebnis der Reisolierung qualitiativ (+/-) nach Anreicherung (S.aureus [4]; 32 h after inoculation): - | Ergebnis der Reisolierung qualitiativ (+/-) nach Anreicherung (S.aureus [4]; 48 h after inoculation): - | Ergebnis der Reisolierung qualitiativ (+/-) nach Anreicherung (S.aureus [4]; 72 h after inoculation): - | Ergebnis der Reisolierung (in KBE/ml) (H.influenzae; 2 h after inoculation): <100 KBE/ml | Ergebnis der Reisolierung (in KBE/ml) (H.influenzae; 4 h after inoculation): <100 KBE/ml | Ergebnis der Reisolierung (in KBE/ml) (H.influenzae; 6 h after inoculation): <100 KBE/ml | Ergebnis der Reisolierung (in KBE/ml) (H.influenzae; 8 h after inoculation): <100 KBE/ml | Ergebnis der Reisolierung (in KBE/ml) (H.influenzae; 24 h after inoculation): <100 KBE/ml | Ergebnis der Reisolierung (in KBE/ml) (H.influenzae; 32 h after inoculation): <100 KBE/ml | Ergebnis der Reisolierung (in KBE/ml) (H.influenzae; 48 h after inoculation): <100 KBE/ml | Ergebnis der Reisolierung (in KBE/ml) (H.influenzae; 72 h after inoculation): <100 KBE/ml | Ergebnis der Reisolierung (in KBE/ml) (Sc. pneumoniae [5]; 2 h after inoculation): <100 KBE/ml | Ergebnis der Reisolierung (in KBE/ml) (Sc. pneumoniae [5]; 4 h after inoculation): <100 KBE/ml | Ergebnis der Reisolierung (in KBE/ml) (Sc. pneumoniae [5]; 6 h after inoculation): <100 KBE/ml | Ergebnis der Reisolierung (in KBE/ml) (Sc. pneumoniae [5]; 8 h after inoculation): <100 KBE/ml | Ergebnis der Reisolierung (in KBE/ml) (Sc. pneumoniae [5]; 24 h after inoculation): <100 KBE/ml | Ergebnis der Reisolierung (in KBE/ml) (Sc. pneumoniae [5]; 32 h after inoculation): <100 KBE/ml | Ergebnis der Reisolierung (in KBE/ml) (Sc. pneumoniae [5]; 48 h after inoculation): <100 KBE/ml | Ergebnis der Reisolierung (in KBE/ml) (Sc. pneumoniae [5]; 72 h after inoculation): <100 KBE/ml | Ergebnis der Reisolierung (in KBE/ml) (E.coli [6]; 2 h after inoculation): <100 KBE/ml | Ergebnis der Reisolierung (in KBE/ml) (E.coli [6]; 4 h after inoculation): <100 KBE/ml | Ergebnis der Reisolierung (in KBE/ml) (E.coli [6]; 6 h after inoculation): <100 KBE/ml | Ergebnis der Reisolierung (in KBE/ml) (E.coli [6]; 8 h after inoculation): <100 KBE/ml | Ergebnis der Reisolierung (in KBE/ml) (E.coli [6]; 24 h after inoculation): <100 KBE/ml | Ergebnis der Reisolierung (in KBE/ml) (E.coli [6]; 32 h after inoculation): <100 KBE/ml | Ergebnis der Reisolierung (in KBE/ml) (E.coli [6]; 48 h after inoculation): <100 KBE/ml | Ergebnis der Reisolierung (in KBE/ml) (E.coli [6]; 72 h after inoculation): <100 KBE/ml | Ergebnis der Reisolierung (in KBE/ml) (S.aureus [7]; 2 h after inoculation): <100 KBE/ml | Ergebnis der Reisolierung (in KBE/ml) (S.aureus [7]; 4 h after inoculation): <100 KBE/ml | Ergebnis der Reisolierung (in KBE/ml) (S.aureus [7]; 6 h after inoculation): <100 KBE/ml | Ergebnis der Reisolierung (in KBE/ml) (S.aureus [7]; 8 h after inoculation): <100 KBE/ml | Ergebnis der Reisolierung (in KBE/ml) (S.aureus [7]; 24 h after inoculation): <100 KBE/ml | Ergebnis der Reisolierung (in KBE/ml) (S.aureus [7]; 32 h after inoculation): <100 KBE/ml | Ergebnis der Reisolierung (in KBE/ml) (S.aureus [7]; 48 h after inoculation): <100 KBE/ml | Ergebnis der Reisolierung (in KBE/ml) (S.aureus [7]; 72 h after inoculation): <100 KBE/ml | Ergebnis der Reisolierung (in KBE/ml) (S.epidermidis [8]; 2 h after inoculation): <100 KBE/ml | Ergebnis der Reisolierung (in KBE/ml) (S.epidermidis [8]; 4 h after inoculation): <100 KBE/ml | Ergebnis der Reisolierung (in KBE/ml) (S.epidermidis [8]; 6 h after inoculation): <100 KBE/ml | Ergebnis der Reisolierung (in KBE/ml) (S.epidermidis [8]; 8 h after inoculation): <100 KBE/ml | Ergebnis der Reisolierung (in KBE/ml) (S.epidermidis [8]; 24 h after inoculation): <100 KBE/ml | Ergebnis der Reisolierung (in KBE/ml) (S.epidermidis [8]; 32 h after inoculation): <100 KBE/ml | Ergebnis der Reisolierung (in KBE/ml) (S.epidermidis [8]; 48 h after inoculation): <100 KBE/ml | Ergebnis der Reisolierung (in KBE/ml) (S.epidermidis [8]; 72 h after inoculation): <100 KBE/ml | Ergebnis der Reisolierung (in KBE/ml) (P.aeruginosa [9]; 2 h after inoculation): <100 KBE/ml | Ergebnis der Reisolierung (in KBE/ml) (P.aeruginosa [9]; 4 h after inoculation): <100 KBE/ml | Ergebnis der Reisolierung (in KBE/ml) (P.aeruginosa [9]; 6 h after inoculation): <100 KBE/ml | Ergebnis der Reisolierung (in KBE/ml) (P.aeruginosa [9]; 8 h after inoculation): <100 KBE/ml | Ergebnis der Reisolierung (in KBE/ml) (P.aeruginosa [9]; 24 h after inoculation): <100 KBE/ml | Ergebnis der Reisolierung (in KBE/ml) (P.aeruginosa [9]; 32 h after inoculation): <100 KBE/ml | Ergebnis der Reisolierung (in KBE/ml) (P.aeruginosa [9]; 48 h after inoculation): <100 KBE/ml | Ergebnis der Reisolierung (in KBE/ml) (P.aeruginosa [9]; 72 h after inoculation): <100 KBE/ml | Ergebnis der Reisolierung qualitiativ (+/-) nach Anreicherung (P.aeruginosa [10]; 2 h after inoculation): - - | Ergebnis der Reisolierung qualitiativ (+/-) nach Anreicherung (P.aeruginosa [10]; 4 h after inoculation): - | Ergebnis der Reisolierung qualitiativ (+/-) nach Anreicherung (P.aeruginosa [10]; 6 h after inoculation): - | Ergebnis der Reisolierung qualitiativ (+/-) nach Anreicherung (P.aeruginosa [10]; 8 h after inoculation): - | Ergebnis der Reisolierung qualitiativ (+/-) nach Anreicherung (P.aeruginosa [10]; 24 h after inoculation): - | Ergebnis der Reisolierung qualitiativ (+/-) nach Anreicherung (P.aeruginosa [10]; 32 h after inoculation): - | Ergebnis der Reisolierung qualitiativ (+/-) nach Anreicherung (P.aeruginosa [10]; 48 h after inoculation): - | Ergebnis der Reisolierung qualitiativ (+/-) nach Anreicherung (P.aeruginosa [10]; 72 h after inoculation): -
